This is an account of results in paper PMC8528049, “Expanding the scope of native chemical ligation – templated small molecule drug synthesis via benzanilide formation” (Chemical Science, 2021).

Structures are written as SMILES. Read-outs that look alike come from different tables or passages of the source.

The target of assay [1] is non-phosphorylated Abl1 kinase (Homo sapiens, UniProt P00519). The assay is described as follows: KdELECT assay (DiscoverX), dissociation constants with Abl1 kinase.
Sequence of non-phosphorylated Abl1 kinase (P00519 whole entry): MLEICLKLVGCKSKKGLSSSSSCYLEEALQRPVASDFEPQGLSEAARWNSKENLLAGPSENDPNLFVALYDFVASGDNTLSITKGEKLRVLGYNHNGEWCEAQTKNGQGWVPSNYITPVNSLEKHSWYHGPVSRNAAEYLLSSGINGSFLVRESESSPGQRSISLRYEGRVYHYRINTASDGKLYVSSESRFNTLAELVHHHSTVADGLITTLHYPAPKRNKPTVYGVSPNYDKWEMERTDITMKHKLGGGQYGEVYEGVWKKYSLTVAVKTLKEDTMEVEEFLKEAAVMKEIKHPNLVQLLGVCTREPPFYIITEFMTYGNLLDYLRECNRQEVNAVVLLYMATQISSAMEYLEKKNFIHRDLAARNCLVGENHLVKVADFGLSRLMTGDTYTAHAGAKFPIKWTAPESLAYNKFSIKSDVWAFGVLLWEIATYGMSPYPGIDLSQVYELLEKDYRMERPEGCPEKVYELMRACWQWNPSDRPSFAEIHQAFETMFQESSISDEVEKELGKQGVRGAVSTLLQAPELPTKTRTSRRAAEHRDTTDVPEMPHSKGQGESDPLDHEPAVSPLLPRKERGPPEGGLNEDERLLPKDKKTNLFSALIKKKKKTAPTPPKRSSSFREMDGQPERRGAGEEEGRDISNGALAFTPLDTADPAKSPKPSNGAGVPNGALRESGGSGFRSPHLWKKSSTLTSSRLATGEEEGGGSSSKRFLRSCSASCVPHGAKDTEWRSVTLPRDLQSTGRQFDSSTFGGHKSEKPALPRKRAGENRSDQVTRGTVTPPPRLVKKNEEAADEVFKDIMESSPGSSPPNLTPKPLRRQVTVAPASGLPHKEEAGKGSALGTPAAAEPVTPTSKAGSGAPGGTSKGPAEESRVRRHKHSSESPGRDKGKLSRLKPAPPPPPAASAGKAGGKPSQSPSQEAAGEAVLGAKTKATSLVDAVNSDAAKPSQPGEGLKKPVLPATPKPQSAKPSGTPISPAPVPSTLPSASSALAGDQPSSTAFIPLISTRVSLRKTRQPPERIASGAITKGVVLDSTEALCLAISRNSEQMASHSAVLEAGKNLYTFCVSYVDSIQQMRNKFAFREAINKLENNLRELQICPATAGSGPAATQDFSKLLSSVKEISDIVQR
The subject of another assay is Bcr–Abl. To be noted: cited from earlier work.
The next assay has as its system K562 cells. The assay is described as follows: alamarBlue cell viability assay on K562 cells. The note with it: Homo sapiens. The format is cell-based. The method, then: Cell culture and cell viability assay
K562 cells were cultured in DMEM supplemented with 10% FCS, 4 mM glutamine, 100 U · mL-1 […]
assays , c e l ls were seeded on a 96-well plate (10000 cells/well), followed by the immediate addition of the test compounds (100 µL, serial dilutions in medium). Untreated cells were used as controls and complete medium without cells was used to determine the background signal o f the assay . Afte r […]
1:10, v:v, in PBS) was added to each well. […]
reader from PerkinElmer (Waltham, USA). IC 50 values were calculated from triplicates w it h a 1 3 -po i n t dose-response curve using the Hill equation. […]

[2] abbreviates: Dissociation constant (Kd) of complexes formed with Abl1 kinase, non-phosphorylated Abl1 kinase, calculated from quadruplicates, mean ± SD.
[3] abbreviates: Kd, Replicate 1, non-phosphorylated Abl1 kinase, single replicate 1, Hill equation.
Where [4] appears, read: Kd, Replicate 2, non-phosphorylated Abl1 kinase, single replicate 2, Hill equation.
Where [5] appears, read: Kd, Replicate 3, non-phosphorylated Abl1 kinase, single replicate 3, Hill equation.
[6] abbreviates: Kd, Replicate 4, non-phosphorylated Abl1 kinase, single replicate 4, Hill equation.
Setting [7] is: 96 h, single replicate 1, read-out: IC50, Replicate 1.
[8] abbreviates: 96 h, single replicate 2, read-out: IC50, Replicate 2.
Setting [9] is: 96 h, single replicate 3, read-out: IC50, Replicate 3.
[10] abbreviates: 96 h treatment, calculated from triplicates, read-out: IC50 on K562 cells, determined by alamarBlue assay.

As to `Cc1ccc(C(=O)Nc2cc(C(F)(F)F)c(CN3CCN(C)CC3)cc2S)cc1C#Cc1cnc2[nH]ncc2c1` [GZD824-SH (3a)], the Kd is 0.9 ± 0.4 nM in assay [1] (setting [2]); 1.2 nM in assay [1] (setting [3]); 1.4 nM in assay [1] (setting [4]); 0.5 nM in assay [1] (setting [5]); 0.5 nM in assay [1] (setting [6]).
For the compound `Cc1ccc(C(=O)Nc2ccc(CN3CCN(C)CC3)c(C(F)(F)F)c2)cc1C#Cc1cnc2[nH]ncc2c1` [GZD824 (3), GZD824, reference compound], in the assay on Bcr–Abl, the “IC50 for inhibition of kinases such as Bcr–Abl” value is “low nanomolar range”. Also, the Kd is 0.6 ± 0.3 nM in assay [1] (setting [2]); 1 nM in assay [1] (setting [3]); 0.7 nM in assay [1] (setting [4]); 0.3 nM in assay [1] (setting [5]); 0.4 nM in assay [1] (setting [6]).
For the compound `Cc1ccc(C(=O)Nc2cc(C(F)(F)F)c(CN3CCN(C)CC3)cc2S)cc1C#Cc1cnc2cccnn12` [Ponatinib-SH (2a)], the Kd in assay [1] (setting [2]) is 0.6 nM; in assay [1] (setting [3]) it was 0.5 nM; in assay [1] (setting [4]), 0.7 nM; in assay [1] (setting [5]), 0.6 nM; in assay [1] (setting [6]), 0.6 nM. The IC50 in the assay on K562 cells (setting [7]) was 392 nM; with K562 cells (setting [8]), 343 nM; in the assay on K562 cells (setting [9]) it was 326 nM; in the assay with K562 cells (setting [10]), 354 ± 28 nM.
Consider `Cc1cn(-c2cc(C(F)(F)F)cc(NC(=O)c3ccc(C)c(Nc4nccc(-c5cccnc5)n4)c3)c2S)cn1` [Nilotinib-SH (1a)], for which the Kd was 881 ± 151 nM in assay [1] (setting [2]); 1140 nM in assay [1] (setting [3]); 793 nM in assay [1] (setting [4]); 791 nM in assay [1] (setting [5]); 797 nM in assay [1] (setting [6]).
As for `Cc1ccc(-c2nc3cc(C(F)(F)F)c(CN4CCN(C)CC4)cc3s2)cc1C#Cc1cnc2cccnn12` [Ponatinib-BT (2b)], the dissociation constant (Kd) was 8.4 ± 2.3 nM in assay [1] (setting [2]); 11.6 nM in assay [1] (setting [3]); 9.5 nM in assay [1] (setting [4]); 6.4 nM in assay [1] (setting [5]); 6.2 nM in assay [1] (setting [6]). Further, the concentration for half-maximal inhibition (IC50) is 118 nM in the assay on K562 cells (setting [7]), 115 nM with K562 cells (setting [8]), 126 nM with K562 cells (setting [9]) and 120 ± 5 nM in the assay with K562 cells (setting [10]).
As for `Cc1cn(-c2cc(NC(=O)c3ccc(C)c(Nc4nccc(-c5cccnc5)n4)c3)cc(C(F)(F)F)c2)cn1` [Nilotinib (1), Nilotinib], in the assay with Bcr–Abl, the “IC50 for inhibition of kinases such as Bcr–Abl” value is given as “low nanomolar range”.
`Cc1ccc(C(=O)Nc2ccc(CN3CCN(C)CC3)c(C(F)(F)F)c2)cc1C#Cc1cnc2cccnn12` [Ponatinib (2), Ponatinib, reference compound]: the IC50 was 3.5 nM in the assay with K562 cells (setting [7]), 3.6 nM in the assay on K562 cells (setting [8]), 3.1 nM in the assay on K562 cells (setting [9]) and 3.4 ± 0.2 nM in the assay with K562 cells (setting [10]).
